How the values were obtained:
D3 than D2 receptor = details: cited from earlier work
rD3 receptor = rD3 receptor (Rattus norvegicus, UniProt P19020)
rD2L receptor = rD2L receptor (Rattus norvegicus, UniProt P61169); details: read-out: Ki (nM), rD2L [3H]spiperone; HEK293 cells, mean ± SEM
rD2L receptor, sequence (P61169 whole entry): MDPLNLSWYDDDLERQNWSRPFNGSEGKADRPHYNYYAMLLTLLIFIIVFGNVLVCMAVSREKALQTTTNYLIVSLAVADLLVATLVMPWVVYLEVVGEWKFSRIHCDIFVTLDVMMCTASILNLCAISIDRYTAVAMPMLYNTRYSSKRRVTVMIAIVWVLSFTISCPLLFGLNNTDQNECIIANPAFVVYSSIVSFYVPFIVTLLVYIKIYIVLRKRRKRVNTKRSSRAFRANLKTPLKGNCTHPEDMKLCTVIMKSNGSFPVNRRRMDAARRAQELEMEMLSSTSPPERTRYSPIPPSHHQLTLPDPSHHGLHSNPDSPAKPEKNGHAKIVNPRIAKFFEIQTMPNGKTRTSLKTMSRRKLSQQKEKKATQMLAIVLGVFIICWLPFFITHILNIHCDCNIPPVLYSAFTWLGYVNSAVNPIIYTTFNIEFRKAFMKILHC

rD3 receptor, sequence (P19020 whole entry): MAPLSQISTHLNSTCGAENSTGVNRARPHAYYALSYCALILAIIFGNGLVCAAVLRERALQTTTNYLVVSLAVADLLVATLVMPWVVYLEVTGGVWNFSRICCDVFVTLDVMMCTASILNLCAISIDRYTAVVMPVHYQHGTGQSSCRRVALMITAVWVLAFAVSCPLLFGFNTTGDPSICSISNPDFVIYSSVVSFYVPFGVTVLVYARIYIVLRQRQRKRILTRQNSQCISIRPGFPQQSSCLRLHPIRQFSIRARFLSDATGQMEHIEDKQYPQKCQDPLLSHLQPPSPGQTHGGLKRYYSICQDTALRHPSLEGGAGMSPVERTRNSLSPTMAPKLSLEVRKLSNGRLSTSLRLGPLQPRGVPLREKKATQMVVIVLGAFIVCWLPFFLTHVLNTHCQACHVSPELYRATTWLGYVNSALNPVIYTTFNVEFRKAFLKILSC

Compound | fold higher affinity for the D3 than D2 receptor (D3 than D2 receptor) | D2L/D3 (rD3 receptor; ratio of Ki rD2L / Ki rD3) | Ki (rD3 receptor; read-out: Ki (nM), rD3 [3H]spiperone, HEK293 cells, mean ± SEM) | Ki (rD2L receptor)
CCCN[C@H]1CCc2nc(N)sc2C1 [pramipexole] | 4- to 10 fold | – | – | –
N^6-(2-(4-Phenylpiperazin-1-yl)ethyl)-N^6-propyl-5,6,7,8-tetrahydro-1H-naphtho[2,3-d]imidazole-2,6-diamine [Compound 10e] | – | 8.89 | 1790 nM | 15900 nM

Reference: PMC3760392 (Bioorganic & medicinal chemistry, 2013)
